Data as given in patent US20260124268A1 (priority 2019, published 2026).
Values after ≈ are worked out from the molar mass of the structure shown. Values joined by “and” are separate entries in the source; they are usually repeats but may differ in a detail not shown here. Equal values may be shown once. Read-outs that look alike come from different tables or passages of the source.

Columns and labels:
[1] = Growth performance and feed efficiency of challenged broilers; type: in vivo, broilers (male Cobb 500); conditions: SF: salinomycin 0.042% in feed; for Avg. daily gain / Weight gain: per bird
Excerpt: Bird Placement. The birds in this study were sourced from a commercial hatchery and were housed at the Colorado Quality Research facility (CQR). Healthy male Cobb 500 were used in this study and were vaccinated for Mareks at the hatchery and upon arrival at CQR the birds were vaccinated for Newcastle and Infectious Bronchitis and were randomly divided into five treatments. At placement 24 birds were placed into each pen with 11 replicates per treatment. On day eight birds were culled or replaced as needed to have 22 birds per pen with the pen being the statistical unit. The treatments were assigned to blocks and randomized within blocks. All birds in this experiment were discarded on site. All data was collected by the Colorado Quality Research (CQR) staff. The protocol MS-18-1 was approved by the CQR IACUC committee.
Basal and Experimental Diets. The starter, grower, and basal diets were manufactured at the CQR feed mill using CQR formulated diets and described in Table 1. The feed was made and stored in bulk. The final experimental diet mixing, pelleting and crumbling was conducted at CQR using a 500-lb capacity vertical mixer (Seedburo, Golden Valley, MN), a 4000-lb capacity vertical mixer (Prater, Bolingbrook, IL) and/or a 14,000-lb horizontal mixer (H&S Manufacturing, Marshfield, WI) and a California pellet mill (CPM Co., Crawfordsville, IN). The feed was stored in 50-lb feed sacks until needed.
The product was made fresh daily and administered in the water using a liquid medicator (Farmer Boy Ag, Myerstown, PA). A different stock solution was prepared for each treatment and the stock solutions were weighed each day to determine the amount of product consumed. The stock solutions were adjusted accordingly to ensure that the correct dose has been administered based on water consumption. The antibiotic control SF birds were administered Salinomycin (Sacox 60, Phibro Animal Health Corp., Teaneck, NJ) in the feed at 0.042% for the whole experimental period. […] If abnormal conditions or abnormal behavior is noted at any of the twice-daily observations they were documented and added to the study records. The maximum and minimum temperatures were recorded daily. The dead birds were collected and counted each day from each pen. The mortality was recorded on pen sheet and the cause of death was recorded. The pen mortality and the NE-associated mortality were calculated based on total mortality and as a percentage. The percentages were calculated based on the number of re-count birds on day 8. The birds were weighed on day 0, 17, 28, and 35 and the average daily gain was calculated for each of these time periods. The final pen weight was also measured. The amount of feed consumed was calculated from the starter feed (DO-17), the grower feed (D18-28), finisher feed (D29-35), and over the whole period (DO-35). The feed efficiency and adjusted feed efficiency were calculated to compare different growth periods. On day 21, 5 birds from each pen were randomly selected using a first caught method. The birds were sacrificed and evaluated for intestinal lesions to score the severity of the lesion scores using the scale in Table 4.

[2] = test system: Clostridium perfringens (CL-15, Type-A); type: in vivo, broilers (male Cobb 500); conditions: SF: salinomycin 0.042% in feed
[3] = test system: Clostridium perfringens (CL-15, Type-A); type: in vivo, broilers (male Cobb 500); conditions: SF: salinomycin 0.042% in feed, day 21
[4] = Evaluation of litter score (percent caked litter); type: in vivo, broilers (male Cobb 500); conditions: SF: salinomycin 0.042% in feed; day 28
Experimental: Evaluation of Litter Score. The litter from each pen was evaluated on day 28 of the trial. The litter was evaluated based on percentage of caked litter in the pen. The percentages were grouped from 0-19, 20-39, 40-59, 60-79, and 80-100%. The mid-value from the percentage range was used to calculate the average pen litter score.

[5] = test system: MRSA LA; experiment: microbe, parasite or virus in culture; type: cell-based; conditions: Staphylococcus aureus, 24 h
[6] = test system: MRSA 81M; experiment: microbe, parasite or virus in culture; type: cell-based; conditions: Staphylococcus aureus, 24 h
[7] = Day 28-35, % of birds at day 8 re-count

## CC[C@@H](C(=O)[C@@H](C)[C@@H](O)[C@H](C)[C@@H]1O[C@@H]([C@@H](CC)C(=O)O)CC[C@@H]1C)[C@H]1O[C@]2(C=C[C@@H](O)[C@]3(CC[C@@](C)([C@H]4CC[C@](O)(CC)[C@H](C)O4)O3)O2)[C@H](C)C[C@@H]1C [Salinomycin, salinomycin]
[1]; D 0-17
  Adj. F:G (adjusted feed-to-gain ratio): 1.287
  F:G (feed-to-gain ratio): 1.320
  Avg. daily gain: 28.1 g/day
  Weight gain: 0.479 kg
[1]; D 0-28
  Adj. F:G (adjusted feed-to-gain ratio): 1.368
  F:G (feed-to-gain ratio): 1.656
  Avg. daily gain: 50.3 g/day
  Weight gain: 1.407 kg
[1]; D 0-35
  Adj. F:G (adjusted feed-to-gain ratio): 1.448
  F:G (feed-to-gain ratio): 1.666
  Avg. daily gain: 59.6 g/day
  Weight gain: 2.087 kg
[1]; D17-28
  Adj. F:G (adjusted feed-to-gain ratio): 1.421
  Difference in weight gain compared to NTC: −0.21%
  F:G (feed-to-gain ratio): 1.947
  Weight gain less than NTC birds: 2 grams
[1]; D 17-28
  Avg. daily gain: 84.4 g/day
  Weight gain: 0.928 kg
[1]; D 28-35
  Adj. F:G (adjusted feed-to-gain ratio): 1.654
  F:G (feed-to-gain ratio): 1.691
  Avg. daily gain: 97.1 g/day
  Weight gain: 0.680 kg
[1]; day 35
  Increase in the harvest weight (final pen weight) compared to NTC: 18.2%
[1]; live pen weight at day 35
  Average pen weight: 34.59 kg and 34.59a kg
[2]; Day 0-17, % of birds at day 8 re-count
  Total Mortality: (2.1%)
[2]; Day 0-17, birds dead
  Total Mortality: 5
[2]; Day 0-35, % of birds at day 8 re-count
  Total Mortality: (5.4%)
[2]; Day 0-35, birds dead
  NE Mortality: 5
  Total Mortality: 13
[2]; Day 17-28, % of birds at day 8 re-count
  Total Mortality: (2.1%)
[2]; Day 17-28, birds dead
  NE Mortality: 4
  Total Mortality: 5
[2]; [7]
  NE Mortality: (0.4%)
  Total Mortality: (1.2%)
[2]; Day 28-35, birds dead
  NE Mortality: 1
  Total Mortality: 3
[3]
  Reduction in lesion score compared to NTC: 50.6%
[3]; scale 0-4
  Average lesion score: 0.80
[4]
  Average percent caked litter: 79%

## CO[C@@]1(NC(=O)Cc2cccs2)C(=O)N2C(C(=O)O)=C(COC(N)=O)CS[C@@H]21 [cefoxitin]
[5]
  MIC: 60 µg/mL (≈ 140 µM)
[6]
  MIC: 100 µg/mL (≈ 234 µM)
